Results published in ChEMBL document CHEMBL3763146 (J Med Chem, 2016).

Assays:
[1] = Half life in rat at 1 mg/kg, iv or 2 mg/kg, po; format: ADME, organism-based; settings: in vivo
Cytochrome P450 2D6 = Cytochrome P450 2D6 (Homo sapiens, UniProt P10635); assay: Inhibition of CYP2D6 in human liver microsomes assessed as dextraomethorphan O-demethylation; format: ADME
[2] = target: Beta-2 adrenergic receptor (Homo sapiens, UniProt P07550)
Description: Displacement of [125]I-cyanopindolol from human recombinant beta2 adrenergic receptor after 1 hr by scintillation counting method

[3] = target: Voltage-gated inwardly rectifying potassium channel KCNH2 (Homo sapiens, UniProt Q12809); assay: Binding affinity to human ERG channel
[4] = Induction of phospholidosis in human HepG2 cells incubated overnight by […] in presence of fluorescent labeled phospholipid probe NBD-PE; format: cell-based; settings: read-out: A50
[5] = Oral bioavailability in rat at 2 mg/kg; format: ADME, organism-based; settings: in vivo
[6] = target: Voltage-dependent L-type calcium channel subunit alpha-1C (Homo sapiens, UniProt Q13936); assay: Displacement of [3H]-diltiazem from human Cav1.2 channel
[7] = target: Sodium channel protein type 2 subunit alpha (Homo sapiens, UniProt Q99250); assay: Inhibition of human Nav1.2 channel expressed in Xenopus oocytes by two-intracellular microelectrode voltage clamp method; format: cell-based
[8] = target: Beta-1 adrenergic receptor (Homo sapiens, UniProt P08588)
Description: Displacement of [125]I-cyanopindolol from recombinant human beta1 adrenergic receptor after 1 hr by scintillation counting method

[9] = target: Sodium-dependent serotonin transporter (Homo sapiens, UniProt P31645); assay: Inhibition of human SERT expressed in HEK293 cells preincubated for 30 mins followed by fluorescent substrate addition measured after 30 mins by plate reader analysis; format: cell-based
Cytochrome P450 2C9 = Cytochrome P450 2C9 (Homo sapiens, UniProt P11712); assay: Inhibition of CYP2C9 in human liver microsomes assessed as diclofenac alpha'-hydroxylation; format: ADME
Cytochrome P450 3A4 = Cytochrome P450 3A4 (Homo sapiens, UniProt P08684); assay: Inhibition of CYP3A4 in human liver microsomes assessed as testosterone 6beta-hydroxylation; format: ADME
[10] = target: T1, Beta-3 adrenergic receptor (Homo sapiens, UniProt P13945); assay: Agonist activity at human beta3 adrenergic receptor expressed in CHO cells assessed as accumulation of cAMP after 30 mins by TR-FRET assay; format: functional, cell-based
Target sequence in this assay (P13945 whole entry): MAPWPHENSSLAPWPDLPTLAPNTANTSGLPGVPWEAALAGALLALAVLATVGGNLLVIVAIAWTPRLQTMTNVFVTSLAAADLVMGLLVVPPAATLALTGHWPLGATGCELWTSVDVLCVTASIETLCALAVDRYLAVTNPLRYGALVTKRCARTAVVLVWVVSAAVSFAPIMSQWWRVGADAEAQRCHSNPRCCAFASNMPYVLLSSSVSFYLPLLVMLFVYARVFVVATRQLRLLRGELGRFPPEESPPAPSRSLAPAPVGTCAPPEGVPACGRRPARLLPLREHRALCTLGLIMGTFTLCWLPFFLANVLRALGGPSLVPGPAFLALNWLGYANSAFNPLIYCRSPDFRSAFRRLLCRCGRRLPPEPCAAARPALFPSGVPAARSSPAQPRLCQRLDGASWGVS

[11] = Distribution coefficient, logD of the compound at pH 7.4; format: physicochemical; settings: octanol/water
Rattus norvegicus [12] = assay: Dose normalized total AUC in rat at 2 mg/kg, po; format: ADME, organism-based; settings: in vivo
[13] = target: T1, Beta-3 adrenergic receptor; assay: Agonist activity at human beta3 adrenergic receptor expressed in CHO cells assessed as accumulation of cAMP after 30 mins by TR-FRET assay relative to (R)-(-)-isoproterenol; format: functional, cell-based
Target sequence in this assay (P13945 whole entry, looked up): as the sequence (P13945 whole entry) above

[14] = Plasma clearance in rat at 1 mg/kg, iv or 2 mg/kg, po; format: ADME, organism-based
Rattus norvegicus [15] = assay: Increase in circulating free fatty acid level in iv infused Sprague-Dawley rat after 45 mins by liquid chromatography-tandem mass spectrometric analysis; format: functional
Rattus norvegicus [16] = assay: Increase in circulating glycerol level in iv infused Sprague-Dawley rat after 45 mins by liquid chromatography-tandem mass spectrometric analysis; format: functional

Sequence of Beta-1 adrenergic receptor (P08588 whole entry): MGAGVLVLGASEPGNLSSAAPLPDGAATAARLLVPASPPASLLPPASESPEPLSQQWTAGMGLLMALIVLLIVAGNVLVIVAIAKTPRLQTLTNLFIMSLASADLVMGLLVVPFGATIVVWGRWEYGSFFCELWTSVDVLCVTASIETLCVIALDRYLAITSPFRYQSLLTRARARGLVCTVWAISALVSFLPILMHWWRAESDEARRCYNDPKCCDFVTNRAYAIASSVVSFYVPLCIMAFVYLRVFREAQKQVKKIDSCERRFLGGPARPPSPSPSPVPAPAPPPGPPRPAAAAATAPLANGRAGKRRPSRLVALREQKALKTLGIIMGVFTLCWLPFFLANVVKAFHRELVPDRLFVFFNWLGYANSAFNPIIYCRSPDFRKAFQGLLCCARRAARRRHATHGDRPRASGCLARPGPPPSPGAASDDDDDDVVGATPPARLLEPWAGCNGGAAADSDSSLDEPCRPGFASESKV
Sequence of Voltage-gated inwardly rectifying potassium channel KCNH2 (Q12809 whole entry): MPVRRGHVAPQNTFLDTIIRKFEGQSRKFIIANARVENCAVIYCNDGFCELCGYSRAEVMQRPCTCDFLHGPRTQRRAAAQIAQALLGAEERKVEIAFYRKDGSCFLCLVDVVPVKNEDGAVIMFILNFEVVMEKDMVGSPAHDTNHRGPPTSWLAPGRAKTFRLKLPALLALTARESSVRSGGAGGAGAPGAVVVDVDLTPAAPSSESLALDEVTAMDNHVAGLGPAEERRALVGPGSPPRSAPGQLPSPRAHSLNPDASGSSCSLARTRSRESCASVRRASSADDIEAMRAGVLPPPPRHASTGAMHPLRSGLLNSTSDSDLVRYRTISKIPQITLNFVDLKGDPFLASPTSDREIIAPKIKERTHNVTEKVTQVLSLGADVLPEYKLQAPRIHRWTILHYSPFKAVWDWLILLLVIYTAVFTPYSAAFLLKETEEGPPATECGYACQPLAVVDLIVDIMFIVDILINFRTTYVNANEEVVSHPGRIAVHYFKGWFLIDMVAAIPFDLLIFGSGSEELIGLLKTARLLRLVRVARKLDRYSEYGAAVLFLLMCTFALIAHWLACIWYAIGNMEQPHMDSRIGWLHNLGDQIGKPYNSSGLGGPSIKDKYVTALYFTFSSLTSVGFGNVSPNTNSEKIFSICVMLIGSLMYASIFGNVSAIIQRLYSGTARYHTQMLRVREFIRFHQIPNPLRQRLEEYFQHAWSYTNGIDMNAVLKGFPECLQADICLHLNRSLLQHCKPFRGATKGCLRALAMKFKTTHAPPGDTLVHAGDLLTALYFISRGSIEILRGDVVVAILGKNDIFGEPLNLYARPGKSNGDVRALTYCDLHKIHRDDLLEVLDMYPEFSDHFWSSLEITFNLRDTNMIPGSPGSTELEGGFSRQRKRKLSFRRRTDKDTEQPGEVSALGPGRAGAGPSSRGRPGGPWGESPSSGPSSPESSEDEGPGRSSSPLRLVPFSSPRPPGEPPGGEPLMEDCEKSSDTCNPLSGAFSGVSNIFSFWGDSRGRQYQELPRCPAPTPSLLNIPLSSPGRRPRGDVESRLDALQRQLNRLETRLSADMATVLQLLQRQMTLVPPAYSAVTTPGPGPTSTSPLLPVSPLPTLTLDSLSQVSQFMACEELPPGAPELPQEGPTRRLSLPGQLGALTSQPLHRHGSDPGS
Sequence of Sodium channel protein type 2 subunit alpha (Q99250 whole entry, looked up): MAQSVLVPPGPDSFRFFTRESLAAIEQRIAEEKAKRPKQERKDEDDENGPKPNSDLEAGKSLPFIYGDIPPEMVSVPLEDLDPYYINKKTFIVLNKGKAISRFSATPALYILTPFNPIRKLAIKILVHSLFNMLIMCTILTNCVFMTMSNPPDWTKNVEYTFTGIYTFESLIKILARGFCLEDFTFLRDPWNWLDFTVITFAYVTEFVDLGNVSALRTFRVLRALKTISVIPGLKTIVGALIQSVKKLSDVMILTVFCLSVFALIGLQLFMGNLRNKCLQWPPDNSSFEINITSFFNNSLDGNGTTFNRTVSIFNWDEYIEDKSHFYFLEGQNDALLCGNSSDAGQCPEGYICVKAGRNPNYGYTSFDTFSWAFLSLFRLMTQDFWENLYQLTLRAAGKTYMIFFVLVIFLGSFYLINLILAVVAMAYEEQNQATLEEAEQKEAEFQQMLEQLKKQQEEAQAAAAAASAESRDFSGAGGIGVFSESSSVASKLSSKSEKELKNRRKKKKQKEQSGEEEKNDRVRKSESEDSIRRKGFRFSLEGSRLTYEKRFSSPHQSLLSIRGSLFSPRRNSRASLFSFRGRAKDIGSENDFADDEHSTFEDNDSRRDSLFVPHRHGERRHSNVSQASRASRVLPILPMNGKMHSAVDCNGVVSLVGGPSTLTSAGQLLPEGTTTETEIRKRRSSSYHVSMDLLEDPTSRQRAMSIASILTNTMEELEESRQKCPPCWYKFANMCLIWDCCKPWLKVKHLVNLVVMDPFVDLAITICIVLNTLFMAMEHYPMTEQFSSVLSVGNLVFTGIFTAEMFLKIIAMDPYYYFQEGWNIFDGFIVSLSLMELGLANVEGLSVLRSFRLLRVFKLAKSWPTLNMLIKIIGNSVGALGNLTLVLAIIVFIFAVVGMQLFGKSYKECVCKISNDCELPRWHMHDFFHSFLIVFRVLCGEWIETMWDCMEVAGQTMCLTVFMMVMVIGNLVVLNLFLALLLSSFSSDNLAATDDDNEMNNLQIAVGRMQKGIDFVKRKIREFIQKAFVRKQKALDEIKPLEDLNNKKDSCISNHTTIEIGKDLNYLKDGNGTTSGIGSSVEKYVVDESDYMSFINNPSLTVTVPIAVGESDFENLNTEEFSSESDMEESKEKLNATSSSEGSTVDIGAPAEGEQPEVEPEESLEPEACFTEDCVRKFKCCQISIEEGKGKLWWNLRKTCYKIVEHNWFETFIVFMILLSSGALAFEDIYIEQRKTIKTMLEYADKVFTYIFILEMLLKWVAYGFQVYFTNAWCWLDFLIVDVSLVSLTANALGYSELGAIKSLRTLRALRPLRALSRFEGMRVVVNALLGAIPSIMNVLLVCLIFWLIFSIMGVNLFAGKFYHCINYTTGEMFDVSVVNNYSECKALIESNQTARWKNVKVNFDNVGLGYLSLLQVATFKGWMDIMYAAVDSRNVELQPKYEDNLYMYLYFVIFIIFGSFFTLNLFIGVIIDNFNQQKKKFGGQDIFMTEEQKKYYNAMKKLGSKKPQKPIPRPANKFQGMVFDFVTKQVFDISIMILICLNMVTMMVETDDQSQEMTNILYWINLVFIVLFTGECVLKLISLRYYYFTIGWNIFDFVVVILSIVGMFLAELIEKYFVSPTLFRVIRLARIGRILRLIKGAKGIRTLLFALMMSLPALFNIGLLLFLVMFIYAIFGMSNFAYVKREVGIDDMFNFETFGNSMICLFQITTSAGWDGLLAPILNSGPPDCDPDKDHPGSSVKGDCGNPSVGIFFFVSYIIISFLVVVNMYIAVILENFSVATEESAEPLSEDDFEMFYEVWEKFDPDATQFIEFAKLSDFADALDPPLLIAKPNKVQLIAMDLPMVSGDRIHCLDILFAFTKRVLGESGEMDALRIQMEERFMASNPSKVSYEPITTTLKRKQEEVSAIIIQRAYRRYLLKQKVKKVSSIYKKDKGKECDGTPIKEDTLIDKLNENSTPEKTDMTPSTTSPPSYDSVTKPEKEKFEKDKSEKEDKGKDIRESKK
Sequence of Beta-2 adrenergic receptor (P07550 whole entry): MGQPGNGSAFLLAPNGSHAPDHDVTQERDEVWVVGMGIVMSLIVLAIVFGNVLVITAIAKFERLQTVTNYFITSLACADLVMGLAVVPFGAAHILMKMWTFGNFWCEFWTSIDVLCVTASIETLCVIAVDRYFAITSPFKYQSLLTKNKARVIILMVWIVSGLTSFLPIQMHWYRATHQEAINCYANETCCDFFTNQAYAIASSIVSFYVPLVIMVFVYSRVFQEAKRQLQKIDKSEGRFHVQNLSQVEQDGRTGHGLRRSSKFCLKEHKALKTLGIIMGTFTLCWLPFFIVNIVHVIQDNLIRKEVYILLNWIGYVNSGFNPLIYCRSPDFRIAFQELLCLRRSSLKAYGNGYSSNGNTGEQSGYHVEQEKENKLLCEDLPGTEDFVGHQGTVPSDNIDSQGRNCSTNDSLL
Sequence of Cytochrome P450 2D6 (P10635 whole entry): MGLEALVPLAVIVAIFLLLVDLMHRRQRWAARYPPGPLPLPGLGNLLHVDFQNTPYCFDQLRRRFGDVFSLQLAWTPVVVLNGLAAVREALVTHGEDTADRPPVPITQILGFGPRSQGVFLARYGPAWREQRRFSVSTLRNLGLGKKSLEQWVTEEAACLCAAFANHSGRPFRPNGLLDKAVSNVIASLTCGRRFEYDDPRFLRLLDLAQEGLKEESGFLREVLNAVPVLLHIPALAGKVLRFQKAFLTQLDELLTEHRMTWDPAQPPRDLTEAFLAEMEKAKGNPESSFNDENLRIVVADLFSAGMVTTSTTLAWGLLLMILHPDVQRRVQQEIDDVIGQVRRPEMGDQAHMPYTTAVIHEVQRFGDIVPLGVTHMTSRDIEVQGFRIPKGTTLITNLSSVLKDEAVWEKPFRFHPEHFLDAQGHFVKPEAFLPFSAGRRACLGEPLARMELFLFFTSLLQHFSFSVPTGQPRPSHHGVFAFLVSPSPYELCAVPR

| SMILES | half-life [1] | IC50 [2] | AC50 [4] | bioavailability [5] | IC50 [7] | IC50 [8] | IC50 [9] | EC50 [10] | logD [11] | max activation [13] | clearance [14] | IC50 [3] | IC50 [6] | other results |
| --- | --- | --- | --- | --- | --- | --- | --- | --- | --- | --- | --- | --- | --- | --- |
| Nc1nc(CC(=O)Nc2ccc(CCNC[C@H](O)c3ccccc3)cc2)cs1 [MIRABEGRON] |  |  |  |  |  |  |  |  |  |  |  |  |  | Activity (Rattus norvegicus [15]): Dose-dependent effect; minimal effective dose (Rattus norvegicus [15]; 0.75 h, read-out: MED): 0.3 mg/kg; Activity (Rattus norvegicus [16]): Dose-dependent effect; minimal effective dose (Rattus norvegicus [16]; 0.75 h, read-out: MED): 0.3 mg/kg |
| Nc1nc(CC(=O)Nc2ccc(C[C@@H]3CC[C@H]([C@H](O)c4ccccc4)N3)cc2)cs1 |  | > 20 µM |  |  | 30 µM | > 20 µM | 1.4 µM | 0.0009 µM | 1.2 | 92% |  | 19 µM |  |  |

Further lines, with some results ahead:

| half-life [1] | IC50 [2] | AC50 [4] | bioavailability [5] | IC50 [7] | IC50 [8] | IC50 [9] | EC50 [10] | logD [11] | max activation [13] | clearance [14] | SMILES | IC50 [3] | IC50 [6] | other results |
| --- | --- | --- | --- | --- | --- | --- | --- | --- | --- | --- | --- | --- | --- | --- |
| 3 h | > 20 µM | > 100 µM | 1% | > 30 µM | > 20 µM | 2.5 µM | 0.0022 µM | 0.6 | 113% | 24 mL/min/kg | O=C(Cn1cccnc1=O)Nc1ccc(C[C@@H]2CC[C@H]([C@H](O)c3ccccc3)N2)cc1 | > 30 µM | > 30 µM | IC50 (Cytochrome P450 2D6): 39 µM; IC50 (Cytochrome P450 2C9): > 100 µM; IC50 (Cytochrome P450 3A4): > 100 µM; AUC/dose (Rattus norvegicus [12]): 24 nM·h/mg/kg |
| 8 h | > 20 µM | > 100 µM | < 1% | > 30 µM | > 20 µM | 0.8 µM | 0.0026 µM |  | 87% | 12 mL/min/kg | C[C@@H](C(=O)Nc1ccc(C[C@@H]2CC[C@H]([C@H](O)c3cccnc3)N2)cc1)n1ncccc1=O | > 30 µM | > 30 µM | AUC/dose (Rattus norvegicus [12]; BLD = below limit of detection): BLD |
|  | > 20 µM | > 100 µM |  | > 30 µM | > 20 µM | 1.1 µM | 0.0043 µM |  | 97% |  | O=C(Cn1ccccc1=O)Nc1ccc(C[C@@H]2CC[C@H]([C@H](O)c3ccccc3)N2)cc1 | > 30 µM | > 30 µM |  |
